In PubChem BioAssay (NCI):
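Where inhibition never reached the appropriate level, the endpoint shown equals the highest concentration tested. Otherwise, values were interpolated linearly from a five-concentration, 48-hour dose response in 96-well plates. At the TGI there is no net growth.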

Key:
Test in all cases: NCI anticancer screen, dose series, 48 h
786-0 renal = system: 786-0 renal
DMS 114 small cell lung = system: DMS 114 small cell lung
HCC-2998 colon = system: HCC-2998 colon
HCT-15 colon = system: HCT-15 colon
KM20L2 colon = system: KM20L2 colon
M19-MEL melanoma = system: M19-MEL melanoma
OVCAR-4 ovarian = system: OVCAR-4 ovarian
OVCAR-5 ovarian = system: OVCAR-5 ovarian
SK-MEL-2 melanoma = system: SK-MEL-2 melanoma
MDA-MB-435 = system: MDA-MB-435
SF-295 CNS = system: SF-295 CNS

SMILES | TGI (786-0 renal) | TGI (DMS 114 small cell lung) | TGI (HCC-2998 colon) | TGI (HCT-15 colon) | TGI (KM20L2 colon) | TGI (M19-MEL melanoma) | TGI (OVCAR-4 ovarian) | TGI (OVCAR-5 ovarian) | TGI (SK-MEL-2 melanoma) | TGI (MDA-MB-435) | TGI (SF-295 CNS)
O=C1OC2C=CC1C1(CCOC1=O)C2 (centres undefined) | > 100 µM | > 100 µM | > 100 µM | > 100 µM | > 100 µM | > 100 µM | > 100 µM | > 100 µM | > 100 µM | – | –
COc1cc(-c2[o+]c3cc(O)cc(OC4OC(CO)C(O)C(O)C4O)c3cc2OC2OC(CO)C(O)C(O)C2O)cc(OC)c1O (centres undefined) | > 100 µM | – | > 100 µM | > 100 µM | – | – | > 100 µM | > 100 µM | > 100 µM | > 100 µM | > 100 µM
C=C1C(=O)O[C@H]2[C@H]([C@H](C)CCCC(C)=O)O[C@H]([C@@]3(C)CCC(=O)O3)C[C@@H]12 | > 100 µM | – | > 100 µM | > 100 µM | – | – | > 100 µM | > 100 µM | > 100 µM | > 100 µM | > 100 µM
COC(=O)/C=C\C(C#N)(C#N)N=Cc1ccsc1 | 3.02 µM | – | 29.6 µM | 2.9 µM | – | – | 32.5 µM | 16.2 µM | 30.7 µM | 12.5 µM | 27.5 µM
CC1(C)O[C@@H](CP(c2cccc3ccccc23)c2cccc3ccccc23)[C@H](CP(c2cccc3ccccc23)c2cccc3ccccc23)O1 | > 100 µM | – | > 100 µM | > 100 µM | – | – | > 100 µM | > 100 µM | > 100 µM | > 100 µM | > 100 µM
Oc1ccc2ccccc2c1OCc1nnc(CCCCCCCCc2nnc(COc3c(O)ccc4ccccc34)o2)o1 | > 100 µM | – | > 100 µM | > 100 µM | – | – | > 100 µM | > 100 µM | > 100 µM | > 100 µM | > 100 µM
COC1=CC(=O)c2c(cc(COP(=O)(N(C)CCBr)N(C)CCBr)n2C)C1=O | 2.87 µM | – | 1.77 µM | 2.28 µM | – | – | 20.4 µM | 4.35 µM | 4.87 µM | 2.35 µM | 3.62 µM
CSc1ccccc1P(CCP(c1ccccc1SC)c1ccccc1SC)c1ccccc1SC | > 100 µM | – | > 100 µM | > 100 µM | – | – | > 100 µM | > 100 µM | > 97.2 µM | > 100 µM | > 95.7 µM
Cn1c(=O)c2sc3cc4c(cc3c2c2ccccc21)sc1c(=O)n(C)c2ccccc2c14 | > 100 µM | – | > 100 µM | > 100 µM | – | – | > 100 µM | > 100 µM | > 100 µM | > 100 µM | 42.6 µM
CN(CCN(C)C(=O)CCn1ccc(=O)[nH]c1=O)C(=O)CCn1ccc(=O)[nH]c1=O | > 100 µM | > 100 µM | > 100 µM | > 100 µM | > 100 µM | > 100 µM | > 100 µM | > 100 µM | > 100 µM | – | > 100 µM
COC(=O)C[C@H](CCSC)NC(=O)C[C@H](CCSC)NC(=O)C[C@H](CCSC)NC(=O)OC(C)(C)C | > 100 µM | – | > 100 µM | > 100 µM | – | – | 55.9 µM | > 100 µM | 64.5 µM | > 100 µM | 51.4 µM
O=C(O)CCCc1ccc2c(c1)CC1(C2)Cc2ccc(CCCC(=O)O)cc2C1 | > 100 µM | – | > 100 µM | > 100 µM | – | – | > 100 µM | > 100 µM | > 100 µM | > 100 µM | > 100 µM
Nc1ccc(-c2nc3ccccc3s2)cc1 | 29.7 µM | 39.1 µM | > 100 µM | 40.4 µM | > 100 µM | > 100 µM | 35.6 µM | 36.5 µM | 64.2 µM | 32.1 µM | > 74.9 µM
CCCCCCc1cn([C@H]2C[C@H](O)[C@@H](CO)O2)c(=O)[nH]c1=O | – | > 100 µM | > 100 µM | > 100 µM | > 100 µM | > 100 µM | > 100 µM | > 100 µM | > 100 µM | – | > 31.6 µM
